Laboratory results reported in BindingDB's records for doi:10.1073/pnas.0509591102 (Mcgill University, 2005).

Columns and labels:
Cannabinoid receptor 2 = Cannabinoid receptor 2 (Homo sapiens, UniProt P34972)
[1] = biological target: Neuronal acetylcholine receptor subunit alpha-3 (Homo sapiens, UniProt P32297)
[2] = biological target: 5-hydroxytryptamine receptor 1D (Homo sapiens, UniProt P28221)
[3] = biological target: Alpha-1A adrenergic receptor (Homo sapiens, UniProt P35348)
[4] = biological target: Beta-1 adrenergic receptor (Rattus norvegicus, UniProt P18090)
Sequence of Beta-1 adrenergic receptor (P18090 whole entry): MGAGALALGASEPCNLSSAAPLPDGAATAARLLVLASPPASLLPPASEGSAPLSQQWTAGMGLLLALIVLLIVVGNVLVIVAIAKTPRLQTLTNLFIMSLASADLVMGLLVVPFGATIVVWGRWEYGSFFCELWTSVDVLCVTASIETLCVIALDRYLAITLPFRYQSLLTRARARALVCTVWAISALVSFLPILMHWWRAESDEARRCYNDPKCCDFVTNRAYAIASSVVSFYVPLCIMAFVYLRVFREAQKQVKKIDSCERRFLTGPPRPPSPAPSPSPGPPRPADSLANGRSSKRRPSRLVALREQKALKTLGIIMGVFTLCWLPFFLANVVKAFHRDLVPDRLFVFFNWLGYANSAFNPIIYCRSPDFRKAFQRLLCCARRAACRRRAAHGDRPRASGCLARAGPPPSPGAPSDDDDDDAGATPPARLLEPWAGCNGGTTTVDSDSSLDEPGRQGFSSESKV

[5] = biological target: ATP-dependent translocase ABCB1 (Homo sapiens, UniProt P08183)
[6] = biological target: 5-hydroxytryptamine receptor 2A (Homo sapiens, UniProt P28223)
[7] = biological target: Alpha-2A adrenergic receptor (Homo sapiens, UniProt P08913)
[8] = biological target: 5-hydroxytryptamine receptor 1E (Homo sapiens, UniProt P28566)
[9] = biological target: Muscarinic acetylcholine receptor M1 (Homo sapiens, UniProt P11229)
[10] = biological target: Neuronal acetylcholine receptor subunit alpha-4 (Homo sapiens, UniProt P43681)
Sequence of Neuronal acetylcholine receptor subunit alpha-4 (P43681 whole entry): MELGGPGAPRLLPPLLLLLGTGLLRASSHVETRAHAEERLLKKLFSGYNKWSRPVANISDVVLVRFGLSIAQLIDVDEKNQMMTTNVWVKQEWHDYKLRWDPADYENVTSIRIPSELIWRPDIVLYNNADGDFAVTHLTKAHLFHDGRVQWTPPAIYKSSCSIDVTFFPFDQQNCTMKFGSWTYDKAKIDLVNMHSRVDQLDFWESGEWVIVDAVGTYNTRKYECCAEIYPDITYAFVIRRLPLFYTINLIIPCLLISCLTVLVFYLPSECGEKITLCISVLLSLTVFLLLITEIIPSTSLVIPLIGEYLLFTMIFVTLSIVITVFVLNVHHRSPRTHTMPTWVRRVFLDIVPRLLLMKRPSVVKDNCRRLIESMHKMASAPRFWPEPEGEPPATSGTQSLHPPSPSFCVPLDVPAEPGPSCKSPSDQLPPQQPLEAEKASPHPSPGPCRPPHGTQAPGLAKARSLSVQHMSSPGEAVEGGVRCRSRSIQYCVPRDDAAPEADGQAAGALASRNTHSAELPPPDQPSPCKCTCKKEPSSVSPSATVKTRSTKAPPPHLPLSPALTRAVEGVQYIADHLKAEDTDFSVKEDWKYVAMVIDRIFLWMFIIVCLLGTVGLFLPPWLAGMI

[11] = biological target: Kappa-type opioid receptor (Homo sapiens, UniProt P41145)
[12] = biological target: Muscarinic acetylcholine receptor M4 (Homo sapiens, UniProt P08173)
D(1B) dopamine receptor = D(1B) dopamine receptor (Homo sapiens, UniProt P21918)
[13] = biological target: 5-hydroxytryptamine receptor 2C (Rattus norvegicus, UniProt P08909)
[14] = biological target: 5-hydroxytryptamine receptor 6 (Homo sapiens, UniProt P50406)
[15] = biological target: Sigma non-opioid intracellular receptor 1 (Rattus norvegicus, UniProt Q9R0C9)
Sequence of Sigma non-opioid intracellular receptor 1 (Q9R0C9 whole entry): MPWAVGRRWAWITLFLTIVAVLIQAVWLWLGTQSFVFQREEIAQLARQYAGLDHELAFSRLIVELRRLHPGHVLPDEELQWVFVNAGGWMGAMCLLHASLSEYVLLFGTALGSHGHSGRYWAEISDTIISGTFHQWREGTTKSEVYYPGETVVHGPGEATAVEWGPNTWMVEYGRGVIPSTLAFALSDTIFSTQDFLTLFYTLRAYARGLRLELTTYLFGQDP

D(1A) dopamine receptor = D(1A) dopamine receptor (Homo sapiens, UniProt P21728)
[16] = biological target: Alpha-1B adrenergic receptor (Homo sapiens, UniProt P35368)
Cannabinoid receptor 1 = Cannabinoid receptor 1 (Rattus norvegicus, UniProt P20272)
[17] = biological target: Alpha-2C adrenergic receptor (Homo sapiens, UniProt P18825)
[18] = biological target: Muscarinic acetylcholine receptor M5 (Homo sapiens, UniProt P08912)
Sequence of Muscarinic acetylcholine receptor M5 (P08912 whole entry): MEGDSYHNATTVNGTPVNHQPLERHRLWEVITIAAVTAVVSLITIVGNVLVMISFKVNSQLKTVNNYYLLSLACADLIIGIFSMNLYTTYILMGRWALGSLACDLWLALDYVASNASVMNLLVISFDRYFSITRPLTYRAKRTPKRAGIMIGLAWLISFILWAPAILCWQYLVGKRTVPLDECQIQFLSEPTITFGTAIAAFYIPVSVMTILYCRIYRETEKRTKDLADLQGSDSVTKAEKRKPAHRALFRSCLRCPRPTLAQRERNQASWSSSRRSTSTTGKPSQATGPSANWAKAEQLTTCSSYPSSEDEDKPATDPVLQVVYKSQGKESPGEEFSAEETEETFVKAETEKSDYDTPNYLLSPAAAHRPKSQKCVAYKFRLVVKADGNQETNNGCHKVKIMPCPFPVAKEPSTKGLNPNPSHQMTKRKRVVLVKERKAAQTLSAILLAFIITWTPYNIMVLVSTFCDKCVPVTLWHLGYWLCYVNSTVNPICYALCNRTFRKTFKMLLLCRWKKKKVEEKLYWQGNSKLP

[19] = biological target: Muscarinic acetylcholine receptor M3 (Homo sapiens, UniProt P20309)
[20] = biological target: 5-hydroxytryptamine receptor 1A (Homo sapiens, UniProt P08908)
[21] = biological target: Alpha-2B adrenergic receptor (Homo sapiens, UniProt P18089)
[22] = biological target: AP-2 complex subunit sigma (Rattus norvegicus, UniProt P62744)
[23] = biological target: Muscarinic acetylcholine receptor M2 (Homo sapiens, UniProt P08172)
Sequence of Muscarinic acetylcholine receptor M2 (P08172 whole entry): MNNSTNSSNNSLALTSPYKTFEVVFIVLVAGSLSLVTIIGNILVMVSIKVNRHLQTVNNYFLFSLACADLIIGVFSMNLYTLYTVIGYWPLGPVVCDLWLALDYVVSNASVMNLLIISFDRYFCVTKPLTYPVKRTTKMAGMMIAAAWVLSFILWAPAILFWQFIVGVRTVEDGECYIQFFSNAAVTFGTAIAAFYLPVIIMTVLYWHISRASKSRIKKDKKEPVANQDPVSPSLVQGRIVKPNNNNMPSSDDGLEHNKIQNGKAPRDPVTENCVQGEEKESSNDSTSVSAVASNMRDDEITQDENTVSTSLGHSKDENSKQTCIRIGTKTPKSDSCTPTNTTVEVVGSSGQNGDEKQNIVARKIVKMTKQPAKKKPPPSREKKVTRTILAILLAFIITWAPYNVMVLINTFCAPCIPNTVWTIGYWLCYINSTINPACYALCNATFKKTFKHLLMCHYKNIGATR

D(2) dopamine receptor = D(2) dopamine receptor (Homo sapiens, UniProt P14416)
[24] = biological target: 5-hydroxytryptamine receptor 3A (Homo sapiens, UniProt P46098)
Histamine H1 receptor = Histamine H1 receptor (Homo sapiens, UniProt P35367)
[25] = biological target: Sodium-dependent noradrenaline transporter (Homo sapiens, UniProt P23975)
Sequence of Sodium-dependent noradrenaline transporter (P23975 whole entry): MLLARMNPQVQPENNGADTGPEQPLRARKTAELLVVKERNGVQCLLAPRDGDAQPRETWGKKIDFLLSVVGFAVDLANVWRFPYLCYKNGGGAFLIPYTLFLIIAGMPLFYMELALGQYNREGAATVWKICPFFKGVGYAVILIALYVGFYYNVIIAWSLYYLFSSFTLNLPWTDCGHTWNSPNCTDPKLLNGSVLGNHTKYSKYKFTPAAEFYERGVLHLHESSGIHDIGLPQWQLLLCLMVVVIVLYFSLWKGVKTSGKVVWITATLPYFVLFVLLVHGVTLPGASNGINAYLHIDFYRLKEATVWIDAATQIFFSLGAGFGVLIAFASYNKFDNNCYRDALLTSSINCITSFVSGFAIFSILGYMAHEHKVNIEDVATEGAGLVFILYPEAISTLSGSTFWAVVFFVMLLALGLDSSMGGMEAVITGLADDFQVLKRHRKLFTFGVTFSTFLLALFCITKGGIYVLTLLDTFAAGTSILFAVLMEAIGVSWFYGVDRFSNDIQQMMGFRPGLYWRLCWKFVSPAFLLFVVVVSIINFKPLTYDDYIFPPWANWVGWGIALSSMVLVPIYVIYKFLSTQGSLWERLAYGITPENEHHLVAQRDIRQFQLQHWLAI

[26] = biological target: Beta-2 adrenergic receptor (Rattus norvegicus, UniProt P10608)
Sequence of Beta-2 adrenergic receptor (P10608 whole entry): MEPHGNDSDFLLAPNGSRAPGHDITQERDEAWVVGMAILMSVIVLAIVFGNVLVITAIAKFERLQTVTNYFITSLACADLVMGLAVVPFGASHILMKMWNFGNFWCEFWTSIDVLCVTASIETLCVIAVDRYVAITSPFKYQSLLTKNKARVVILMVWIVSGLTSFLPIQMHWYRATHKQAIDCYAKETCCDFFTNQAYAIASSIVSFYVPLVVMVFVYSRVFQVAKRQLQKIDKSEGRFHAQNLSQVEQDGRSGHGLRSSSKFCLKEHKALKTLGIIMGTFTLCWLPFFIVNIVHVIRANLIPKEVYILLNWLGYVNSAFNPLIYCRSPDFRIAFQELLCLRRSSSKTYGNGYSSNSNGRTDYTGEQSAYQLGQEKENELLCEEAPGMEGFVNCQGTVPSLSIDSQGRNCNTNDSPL

[27] = biological target: 5-hydroxytryptamine receptor 7 (Homo sapiens, UniProt P34969)
Histamine H2 receptor = Histamine H2 receptor (Homo sapiens, UniProt P25021)
Mu-type opioid receptor = Mu-type opioid receptor (Homo sapiens, UniProt P35372)
Sequence of Mu-type opioid receptor (P35372 whole entry): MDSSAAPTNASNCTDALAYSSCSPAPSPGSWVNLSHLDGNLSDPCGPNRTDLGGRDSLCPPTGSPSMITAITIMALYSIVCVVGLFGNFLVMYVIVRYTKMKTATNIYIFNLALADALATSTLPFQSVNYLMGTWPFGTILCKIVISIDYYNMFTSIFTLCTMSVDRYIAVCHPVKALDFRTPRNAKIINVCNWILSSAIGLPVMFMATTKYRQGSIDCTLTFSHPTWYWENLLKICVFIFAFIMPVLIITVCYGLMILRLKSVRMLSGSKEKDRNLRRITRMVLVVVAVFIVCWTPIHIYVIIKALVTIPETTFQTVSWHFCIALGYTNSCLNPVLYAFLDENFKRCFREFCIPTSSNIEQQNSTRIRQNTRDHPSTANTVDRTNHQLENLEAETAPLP

[28] = biological target: Potassium voltage-gated channel subfamily H member 2 (Homo sapiens, UniProt Q12809)
[29] = biological target: 5-hydroxytryptamine receptor 1B (Homo sapiens, UniProt P28222)
Sequence of 5-hydroxytryptamine receptor 1B (P28222 whole entry): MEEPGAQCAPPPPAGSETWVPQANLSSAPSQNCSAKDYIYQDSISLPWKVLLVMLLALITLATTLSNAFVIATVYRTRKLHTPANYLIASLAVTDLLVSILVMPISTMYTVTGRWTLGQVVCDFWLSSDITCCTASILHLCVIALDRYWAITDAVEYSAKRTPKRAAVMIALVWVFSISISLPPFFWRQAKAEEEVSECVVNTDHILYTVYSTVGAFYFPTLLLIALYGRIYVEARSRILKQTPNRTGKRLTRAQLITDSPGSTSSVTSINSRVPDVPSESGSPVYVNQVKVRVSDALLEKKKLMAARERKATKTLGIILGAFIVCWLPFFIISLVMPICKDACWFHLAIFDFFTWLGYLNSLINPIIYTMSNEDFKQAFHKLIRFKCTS

[30] = biological target: Neuronal acetylcholine receptor subunit alpha-2 (Homo sapiens, UniProt Q15822)
D(4) dopamine receptor = D(4) dopamine receptor (Homo sapiens, UniProt P21917)
Sequence of D(4) dopamine receptor (P21917 whole entry): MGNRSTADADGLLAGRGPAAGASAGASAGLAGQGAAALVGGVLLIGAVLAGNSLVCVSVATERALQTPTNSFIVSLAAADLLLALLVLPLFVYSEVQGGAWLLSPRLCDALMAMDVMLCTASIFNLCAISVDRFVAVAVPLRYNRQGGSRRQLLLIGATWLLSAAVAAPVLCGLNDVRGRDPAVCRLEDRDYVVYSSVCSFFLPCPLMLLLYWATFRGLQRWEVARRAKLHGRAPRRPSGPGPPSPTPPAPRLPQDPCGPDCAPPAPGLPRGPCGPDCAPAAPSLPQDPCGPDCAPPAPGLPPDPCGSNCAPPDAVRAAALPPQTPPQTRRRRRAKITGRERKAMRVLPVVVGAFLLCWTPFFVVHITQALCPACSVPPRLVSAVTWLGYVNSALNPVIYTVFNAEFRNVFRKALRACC

D(3) dopamine receptor = D(3) dopamine receptor (Rattus norvegicus, UniProt P19020)

Measured: Ki

Sequence of Cannabinoid receptor 2 (P34972 whole entry): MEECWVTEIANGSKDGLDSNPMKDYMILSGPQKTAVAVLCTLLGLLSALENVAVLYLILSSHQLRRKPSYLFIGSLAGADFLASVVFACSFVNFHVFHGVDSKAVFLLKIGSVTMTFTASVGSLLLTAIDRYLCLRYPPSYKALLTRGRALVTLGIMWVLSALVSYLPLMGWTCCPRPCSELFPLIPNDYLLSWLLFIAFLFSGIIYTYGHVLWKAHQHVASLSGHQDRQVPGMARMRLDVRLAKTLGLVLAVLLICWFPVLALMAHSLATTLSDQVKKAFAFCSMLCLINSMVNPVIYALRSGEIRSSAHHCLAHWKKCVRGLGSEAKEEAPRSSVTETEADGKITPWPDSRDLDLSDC

NC(=O)c1cccc(-c2cccc(OC(=O)NC3CCCCC3)c2)c1 [URB 597]
> 10 µM: all assays above
